Source: PubChem BioAssay (NCI)
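How tested: cells in 96-well plates exposed to compound for 48 hours at five concentrations. TGI is the concentration that stops growth completely.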

Legend:
Test in all cases: NCI-60 cell line screen, 48 h
U251 CNS = system: U251 CNS
SNB-19 CNS = system: SNB-19 CNS
OVCAR-5 ovarian = system: OVCAR-5 ovarian
A549 NSCLC = system: A549 NSCLC
MDA-MB-435 = system: MDA-MB-435
M14 melanoma = system: M14 melanoma
NCI-H226 lung = system: NCI-H226 lung
LOX IMVI melanoma = system: LOX IMVI melanoma
SK-MEL-5 melanoma = system: SK-MEL-5 melanoma
NCI-H522 lung = system: NCI-H522 lung

SMILES | TGI (U251 CNS) [µM] | TGI (SNB-19 CNS) [µM] | TGI (OVCAR-5 ovarian) [µM] | TGI (A549 NSCLC) [µM] | TGI (MDA-MB-435) [µM] | TGI (M14 melanoma) [µM] | TGI (NCI-H226 lung) [µM] | TGI (LOX IMVI melanoma) [µM] | TGI (SK-MEL-5 melanoma) [µM] | TGI (NCI-H522 lung) [µM]
CC1=CC2(C)C=C[C@@H]1C(=O)[C@@]1(C)CC[C@@](O)(C(C)C)[C@H]1CC2 | 33.1 | 65.7 | 34.6 | > 100 | 43.2 | 35.8 | 43.8 | 39 | 34 | 
O=c1[nH]c(=O)n([C@H]2C[C@@H](CO)[C@@H](O)C2)cc1I | > 100 | > 100 | > 100 | > 100 |  | > 100 | > 100 | > 100 | > 100 | > 100
Nc1ncnc2c1ccn2CC#CCO | > 100 | > 100 | > 100 | > 100 | > 100 | > 100 |  | > 100 | > 100 | > 100
COC(=O)C(=O)C(C(=O)OC)C(=O)C(=O)Nc1cc(Cl)c(C)cc1S(=O)(=O)O (stereo unspecified) | > 100 | > 100 | > 100 | > 100 |  | > 100 | > 100 | > 100 | > 100 | > 100
CC(C)CCNC(=O)c1ccc(CNC(=O)/C=C/c2ccc3ccccc3c2)cc1 | > 100 | > 100 | > 100 | > 100 | > 100 | > 100 | > 100 | > 100 | > 100 | 
O=C(O)C12C3CCC(C3)C1(C(=O)O)C1CCC2C1 (stereo unspecified) |  | > 100 | > 100 | > 100 |  | > 100 | > 100 | 58.1 | > 100 | 54.9
Cc1cc2c(cc1Cl)SC(NNCCO)=NS2(=O)=O | > 100 | > 100 |  |  | > 100 | > 100 | > 100 | > 100 | > 100 | 
Cc1ccccc1N(CCC#N)C1=NN(C(=O)CC(=O)Nc2ccc(Cl)cc2)C(c2ccccc2)C1 (stereo unspecified) | > 100 | > 100 | > 100 | > 100 |  | > 100 | > 100 |  | > 100 | > 100
O=C1C(Cl)C(c2ccc(O)cc2)N1n1cnc2ccccc2c1=O (stereo unspecified) | > 100 | > 100 | > 100 | > 100 |  | 96.8 | > 100 | 45.3 | > 100 | 32.6
CCCCCN1C(=O)C(Cc2ccccc2)N=C(c2ccc(O)cc2)c2cc(Cl)ccc21 (stereo unspecified) | 27.2 | 33.7 | 48.3 | 31.7 | 24.4 | 34.4 | 26.3 | 18.5 |  | 17.2
COC(=O)c1cc(/C=C/C(=O)Cc2ccccc2)cn1S(=O)(=O)c1ccccc1 |  | > 100 | > 100 | > 100 |  | > 100 |  | > 100 | > 100 | > 100
Cc1cc(NS(=O)(=O)c2ccc(NO)cc2)no1 |  | > 100 | > 100 | > 100 | 41.4 | > 100 | > 100 | 39.6 | > 100 | 
